Reference: paper PMC10064984, “Anti-cyclooxygenase, anti-glycation, and anti-skin aging effect of Dendrobium officinale flowers’ aqueous extract and its phytochemical validation in aging” (Frontiers in Immunology, 2023)
Values joined by “and” are separate entries in the source; they are usually repeats but may differ in a detail not shown here. Identical values can stand only once.

Legend:
COX-2 = molecular target: T1, COX-2 (Homo sapiens, UniProt P35354); assay: Anti-COX-2 assay (COX-2 Inhibitor Screening Kit); format: biochemical
T1 construct: purchased Beyotime S0168
T1 sequence (P35354 18-604): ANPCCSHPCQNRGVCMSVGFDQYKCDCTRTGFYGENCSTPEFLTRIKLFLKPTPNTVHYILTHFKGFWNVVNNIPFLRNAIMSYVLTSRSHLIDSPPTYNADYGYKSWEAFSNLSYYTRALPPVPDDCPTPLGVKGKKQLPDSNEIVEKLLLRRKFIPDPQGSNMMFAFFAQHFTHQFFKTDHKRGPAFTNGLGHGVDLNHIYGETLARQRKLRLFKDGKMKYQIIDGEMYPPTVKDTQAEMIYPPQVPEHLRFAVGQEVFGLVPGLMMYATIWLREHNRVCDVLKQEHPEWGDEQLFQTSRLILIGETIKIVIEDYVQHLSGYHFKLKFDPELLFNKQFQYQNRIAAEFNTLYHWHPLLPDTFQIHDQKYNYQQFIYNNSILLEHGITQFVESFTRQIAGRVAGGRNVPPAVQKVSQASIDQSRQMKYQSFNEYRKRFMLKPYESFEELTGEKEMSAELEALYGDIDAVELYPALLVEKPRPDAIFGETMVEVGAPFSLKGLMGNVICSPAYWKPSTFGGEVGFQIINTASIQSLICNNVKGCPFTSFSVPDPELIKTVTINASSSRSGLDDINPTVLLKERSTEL

[1] = ABTS·+ decolourisation capacity; format: biochemical; settings: for ABTS scavenging rate: 0.5mM series, replicate wells, listed as T15; for IC50: mean ± SD, n = 3
How it was run: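 ABTS·+ working solution in 0.2 M phosphate buffer, pH 7.4, was adjusted to A729 0.8 ± 0.05, and 100 μl was mixed with 200 μl sample; absorbance was read at 729 nm after 10 min, in triplicate. Inhibition was taken relative to a phosphate-buffer control, and IC50 was obtained graphically from dose-inhibition curves.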

[2] = FRAP total antioxidant capacity; format: biochemical; settings: lower part of sheet (compound series);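 further: colourimetric FRAP kit assay read as absorbance in 96-well plates, values as mM FeSO4 via standard curve, EC1 being sample concentration matching 1.0 mmol/L FeSO4, Trolox positive control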
[3] = Online UPLC-PDA-MS-ABTS·+ scavenging (postcolumn derivatisation); settings: within DOF extract
Method: Online identification of antioxidant components of DOF extract was performed using a UPLC system (Milford, MA, USA) consisting of a Waters photodiode array detector and a Waters postcolumn derivatisation system supplying fresh ABTS solution (UPLC-PDA-QDa-ABTS). […] The detection wavelengths were set at 280 and 734 nm, and the injection volume of the sample was 10 μl.
To detect radical scavengers, the UPLC system was coupled with a Waters pump, which supplied freshly prepared ABTS·+ solution into a reaction coil (15 m, 0.25 mm ID) with a flow rate of 0.2 ml/min at 37°C. Negative peaks were recorded based on a decrease of absorbance at 729 nm after the reaction of individual compounds with the ABTS·+ radical. For preliminary identification of compounds, a Waters Acquity QDa mass detector in negative ionisation mode was connected in series to PDA with the following parameters: electrospray ion source; cone voltage, 15 V; atomiser, N2; and scanning range, 100–800 m/z.

[4] = Fluorescent AGEs formation in a BSA-fructose/glucose system; format: biochemical; settings: mean ± SD, n = 3; read-out: BSA-glycation IC50
How it was run: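 BSA glycated in vitro with D-glucose and D-fructose while test samples, dissolved in DMSO:water (1:4), were present. Percent inhibition of fluorescent AGE formation calculated from fluorescence corrected for sample-only and BSA-free blanks; triplicate.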

DPPH· scavenging = format: biochemical; settings: mean ± SD, n = 3

With O=c1c(O[C@@H]2O[C@H](CO)[C@@H](O)[C@H](O)[C@H]2O)c(-c2ccc(O)c(O)c2)oc2cc(O)cc(O)c12 [compound 25, Isoquercitrin] the “COX-2 inhibition (in words)” value (COX-2) was “great COX-2 inhibition”, the COX-2 inhibition (COX-2; 3.125 μM, single replicates, listed as T15, 3.125 µM) was -5.79% and 0.13% and 6.24% and the COX-2 inhibition (COX-2; 6.25 μM, single replicates, listed as T15, 6.25 µM) was 11.89% and 39.51% and 35.72%. The inhibition at 12.5 µM (COX-2; 12.5 μM, single replicates) was 41.8%, the COX-2 inhibition (COX-2; 12.5 μM, single replicates, listed as T15, 12.5 µM) was 53.29% and 49.38% and the inhibition at 25 µM (COX-2; 25 μM, single replicates) was 67.1%. For the same compound, the COX-2 inhibition (COX-2; 25 μM, single replicates, listed as T15, 25 µM) was 72.74% and 74.72%, the inhibition at 50 µM (COX-2; 50 μM, single replicates) was 78.9% and the COX-2 inhibition (COX-2; 50 μM, single replicates, listed as T15, 50 µM) was 78.06% and 79.70%. For the same compound, the inhibition at 100 µM (COX-2; 100 μM, single replicates) was 77.2%, the COX-2 inhibition (COX-2; 100 μM, single replicates, listed as T15, 100 µM) was 81.94% and 80.44% and the inhibition at 200 µM (COX-2; 200 μM, single replicates) was 79.2%. For the same compound, the COX-2 inhibition (COX-2; 200 μM, single replicates, listed as T15, 200 µM) was 82.29% and 79.96%, the ABTS scavenging rate ([1]; concentration 7.8125 (unit not given)) was 37.41% and 37.49% and 37.14% and the ABTS scavenging rate ([1]; concentration 15.625 (unit not given)) was 63.25% and 62.99% and 62.91%. For the same compound, the ABTS scavenging rate ([1]; concentration 31.25 (unit not given)) was 95.51% and 95.22% and 96.00%, the ABTS scavenging rate ([1]; concentration 62.5 (unit not given)) was 99.23% and 99.50% and 99.53% and the ABTS scavenging rate ([1]; concentration 125 (unit not given)) was 99.63% and 99.58% and 99.53%. The ABTS scavenging rate ([1]; concentration 250 (unit not given)) was 99.04% and 98.96% and 98.89%, the ABTS scavenging rate ([1]; concentration 500 (unit not given)) was 99.05% (2×) and 99.02% and the IC50 [1] was 10.67 ± 0.03 µM. For the same compound, the “FRAP EC1” value [2] was 520.2 ± 17.9 µM, the “online ABTS radical scavenging (size of negative peaks at 734 nm)” value [3] was “strongest ABTS radical scavengers” and the IC50 [4] was 213 ± 10.4 µM.

In the case of O=c1cc(-c2ccc(O)cc2)oc2c(C3OC(CO)C(O)C(O)C3O)c(O)c(C3OC(CO)C(O)C(O)C3O)c(O)c12 (centres unmarked) [compound 10, Vicenin-2], the “COX-2 inhibition (in words)” value (COX-2) is reported as “no inhibitory effects”, the inhibition at 31.25 µM (COX-2; 31.25 μM, single replicates) is reported as 30% and the COX-2 inhibition (COX-2; 31.25 μM, single replicates, listed as T7, 31.25 µM) is reported as 20.65% and 19.20%. For the same compound, the COX-2 inhibition (COX-2; 62.5 μM, single replicates, listed as T7, 62.5 µM) was -16.69% and -16.14% and 33.41%, the COX-2 inhibition (COX-2; 125 μM, single replicates, listed as T7, 125 µM) was -28.47% and -18.44% and 17.41% and the COX-2 inhibition (COX-2; 250 μM, single replicates, listed as T7, 250 µM) was -29.84% and -23.37% and -7.75%. For the same compound, the COX-2 inhibition (COX-2; 500 μM, single replicates, listed as T7, 500 µM) was -24.98% and -23.56% and -9.18%, the COX-2 inhibition (COX-2; 1000 μM, single replicates, listed as T7, 1000 µM) was -59.66% and -32.74% and -11.22% and the COX-2 inhibition (COX-2; 2000 μM (2mM), single replicates, listed as T7) was -38.84% and -31.81% and -15.79%. For the same compound, the IC50 [1] was 74.41 ± 0.69 µM, the “FRAP EC1” value [2] was over 5000 µM and the “online ABTS radical scavenging (size of negative peaks at 734 nm)” value [3] was “strongest ABTS radical scavengers”. It also gave an IC50 (DPPH· scavenging) of over 5000 µM and an IC50 [4] of 258 ± 7.56 µM.
